# Laboratory results published in publication PMC10828444, “Selective inhibition of overactive warmth-sensitive Ca^2+-permeable TRPV3 channels by antispasmodic agent flopropione for alleviation of skin inflammation” (The Journal of Biological Chemistry, 2023).
# How the values were obtained:
# mTRPV2 = target: T1, mTRPV2 (Mus musculus, UniProt Q9WTR1); experiment: Whole-cell patch-clamp of TRPV2 currents activated by 2-APB in HEK293 cells; assay type: cell-based; conditions: flopropione 100 μM, 2-APB 2 mM
# T1 construct: expressed in transfected cells; host or cells: HEK293
# T1 sequence (Q9WTR1 1-756): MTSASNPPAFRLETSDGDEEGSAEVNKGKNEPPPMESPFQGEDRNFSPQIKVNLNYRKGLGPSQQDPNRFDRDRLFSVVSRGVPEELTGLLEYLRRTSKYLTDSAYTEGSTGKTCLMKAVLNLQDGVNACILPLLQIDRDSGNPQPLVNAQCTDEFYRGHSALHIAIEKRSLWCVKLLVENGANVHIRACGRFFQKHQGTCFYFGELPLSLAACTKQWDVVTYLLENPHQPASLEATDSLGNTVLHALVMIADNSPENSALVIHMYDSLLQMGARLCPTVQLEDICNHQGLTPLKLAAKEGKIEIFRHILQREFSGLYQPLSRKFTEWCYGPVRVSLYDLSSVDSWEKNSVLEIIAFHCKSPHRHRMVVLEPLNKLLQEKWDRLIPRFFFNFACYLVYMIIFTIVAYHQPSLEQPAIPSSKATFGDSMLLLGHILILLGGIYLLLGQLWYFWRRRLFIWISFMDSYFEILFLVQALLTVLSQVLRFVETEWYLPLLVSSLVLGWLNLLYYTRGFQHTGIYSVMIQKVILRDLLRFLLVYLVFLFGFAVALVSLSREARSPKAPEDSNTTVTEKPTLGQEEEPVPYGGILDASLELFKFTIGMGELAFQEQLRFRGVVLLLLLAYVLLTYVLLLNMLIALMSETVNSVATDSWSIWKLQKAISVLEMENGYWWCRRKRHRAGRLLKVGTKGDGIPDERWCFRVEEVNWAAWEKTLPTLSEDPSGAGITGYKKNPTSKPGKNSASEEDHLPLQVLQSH
# Description: (§1) HEK293 cells were cultured in Dulbecco’s modified Eagle’s medium (DMEM, Gibco) containing 4.5 g/L D-glucose supplemented with 10% fetal bovine serum based at 37 °C with 5% CO2. For whole-cell patch-clamp recordings, cells were grown in glass coverslips for 24 h before transient transfections with 3000 ng cDNAs of hTRPV3 (gene accession number BC104866.1), hTRPV1 (accession number NM_080704.3), mTRPV2 (accession number NM_011706.2), hTRPV4 (accession number NM_021625.5), hTRPA1 (accession number NM_007332.3) and hTRPM8 (accession number NM_024080.5) into HEK293 cells grown in a 35-mm cell culture dish using Lipofectamine 2000 (Invitrogen). Cells were used 18 ∼ 24 h after transfection. All WT or mutant hTRPV3 plasmids were validated by DNA sequencing.
# (§2) Whole-cell patch clamp recordings of wild-type and mutants were carried out at room temperature using the HEKA EPC10 amplifier powered by PatchMaster software (HEKA) or MultiClamp 700B amplifier driven by Clampex 11.0.3 software. The borosilicate glass pipettes were pulled and fire-polished to 3∼6 MΩ using a DMZ universal electrode puller (Zeitz-Instruments, GmbH). Pipette solution and bath solution both contained (in mM): 130 NaCl, three HEPES, and 0.2 EDTA (pH = 7.4). Cell membrane potential was held at 0 mV, currents were recorded at a voltage ramp from −100 to +100 mV for 500-ms and analyzed at ±80 mV.
# TRPV3-F666A mutant = target: T2, TRPV3-F666A mutant (Homo sapiens, UniProt Q8NET8, F666A); experiment: Whole-cell and single-channel recordings of TRPV3-F666A mutant; assay type: cell-based; conditions: 100 μM flopropione whole-cell (50 μM 2-APB); 50 μM single-channel (30 μM 2-APB)
# T2 construct: expressed in transfected cells; host or cells: HEK293
# T2 sequence (Q8NET8 1-790 F666A): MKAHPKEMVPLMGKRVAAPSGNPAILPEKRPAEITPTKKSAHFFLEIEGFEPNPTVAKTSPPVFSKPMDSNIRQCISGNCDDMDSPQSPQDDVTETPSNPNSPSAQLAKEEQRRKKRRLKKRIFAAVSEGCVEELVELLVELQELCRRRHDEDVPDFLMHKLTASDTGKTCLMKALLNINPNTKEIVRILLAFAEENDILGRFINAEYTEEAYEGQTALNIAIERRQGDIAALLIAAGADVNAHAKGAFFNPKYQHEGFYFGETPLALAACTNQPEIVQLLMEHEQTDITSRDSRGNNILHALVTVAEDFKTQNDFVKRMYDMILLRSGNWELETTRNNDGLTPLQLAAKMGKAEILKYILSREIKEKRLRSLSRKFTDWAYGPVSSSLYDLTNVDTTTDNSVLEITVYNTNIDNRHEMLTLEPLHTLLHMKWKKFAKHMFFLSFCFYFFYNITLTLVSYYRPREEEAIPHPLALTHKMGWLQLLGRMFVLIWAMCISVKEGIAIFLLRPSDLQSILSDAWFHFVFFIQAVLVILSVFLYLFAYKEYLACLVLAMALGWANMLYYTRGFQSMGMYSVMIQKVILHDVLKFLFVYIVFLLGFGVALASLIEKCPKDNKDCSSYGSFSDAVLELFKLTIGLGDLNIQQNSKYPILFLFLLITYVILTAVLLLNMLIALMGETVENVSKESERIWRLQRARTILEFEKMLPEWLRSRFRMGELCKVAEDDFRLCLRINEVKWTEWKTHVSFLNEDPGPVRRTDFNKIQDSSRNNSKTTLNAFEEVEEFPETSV
# Description: as §1
# as §2, with “mV. […]” for “mV.”
smiles,measurement,setting,value
CCC(=O)c1c(O)cc(O)cc1O [flopropione],inhibition at 100 µM,mTRPV2,~60%
same,effect of F666A mutation on flopropione-mediated inhibition,TRPV3-F666A mutant,no effect
